Laboratory results published in patent US20250197374A1, “WEE1 DEGRADING COMPOUNDS AND USES THEREOF” (BRISTOL-MYERS SQUIBB COMPANY, priority 2023, published 2025).
Where two headings read alike, the source gives them in different places.

Experiments:
Type in all cases: cell-based
MDA-MB-231 cells = test: MDA-MB-231 cell proliferation assay (Cell-Titer-Glo, 120 hr); conditions: for EC50: read-out: MDA-MB 231 Cell Prolif. 120 hr EC50; for MDA-MB 231 Cell Prolif. 120 hr YMin (%): minimal percent of DMSO control observed
Method in brief: (§1)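 Growth inhibition was read as CellTiter-Glo luminescence after 120 h at 37 °C in RPMI/10% FBS, with 400 MKN45 or 800 MDA-MB-231 cells seeded per well. Compounds were tested in 10-point half-log series starting at 1 or 10 uM (0.1% DMSO), in triplicate for MKN45 and duplicate for MDA-MB-231. EC50 values are four-parameter fits to %DMSO control, and Ymin-obs is the minimal observed %DMSO.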

MKN45 cells = test: MKN45 cell proliferation assay (Cell-Titer-Glo, 120 hr); conditions: for EC50: read-out: MKN45 Cell Prolif. 120 hr EC50; for MKN45 Cell Prolif. 120 hr YMin (%): minimal percent of DMSO control observed
Method in brief: as §1

WEE1 = target: T1, WEE1 (Homo sapiens, UniProt P30291+Q96SW2); test: WEE1-ePL degradation assay (293T-LentiX, InCELL Hunter luminescence, 4 hr); conditions: for DC50: LentiX-HEK293T cells expressing WEE1-ePL, 4 hr incubation, read-out: 293T-LentiX WEE1-ePL Degradation 4 hr EC50; for 293T-LentiX WEE1-ePL Degradation 4 hr YMin (%): lower limit of fit, % of DMSO control signal remaining
T1 construct: C-terminal ePL-tagged (DiscoverX, Fremont, CA) full-length WEE1 expression construct; expressed in transfected cells; host or cells: LentiX-HEK293T (Invitrogen), lentivirally transduced; the cells also over-express GSPT1-GN
Method in brief: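 EC50 comes from a four-parameter logistic fit of ePL luminescence (InCELL Hunter), with DMSO control defining Ymax. Compounds ran as 10-point 3-fold dilutions from 1 or 10 µM for 4 h at 37 °C. Cells were HEK293T-LentiX with ePL-tagged full-length WEE1 and over-expressed Cereblon-resistant GSPT1-GN.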

[1] = Homo sapiens, MDA-MB-231, 120 h

T1 sequence (P30291 whole entry): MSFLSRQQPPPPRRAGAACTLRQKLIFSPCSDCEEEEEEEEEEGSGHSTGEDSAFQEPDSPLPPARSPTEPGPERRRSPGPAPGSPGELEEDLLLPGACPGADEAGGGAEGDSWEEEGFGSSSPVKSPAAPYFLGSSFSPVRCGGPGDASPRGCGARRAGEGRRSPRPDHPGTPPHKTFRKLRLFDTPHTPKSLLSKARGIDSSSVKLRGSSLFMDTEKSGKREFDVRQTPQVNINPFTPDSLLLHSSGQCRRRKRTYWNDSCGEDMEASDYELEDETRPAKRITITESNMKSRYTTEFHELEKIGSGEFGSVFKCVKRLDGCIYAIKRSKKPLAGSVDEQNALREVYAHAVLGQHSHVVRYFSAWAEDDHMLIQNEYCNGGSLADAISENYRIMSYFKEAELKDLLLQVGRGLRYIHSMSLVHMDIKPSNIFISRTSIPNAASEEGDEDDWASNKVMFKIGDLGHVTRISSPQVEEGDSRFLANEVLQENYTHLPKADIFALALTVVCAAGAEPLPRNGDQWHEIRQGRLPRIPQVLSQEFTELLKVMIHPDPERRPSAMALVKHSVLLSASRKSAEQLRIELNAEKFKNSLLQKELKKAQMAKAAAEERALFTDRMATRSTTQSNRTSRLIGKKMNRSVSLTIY
T1 sequence (Q96SW2 whole entry): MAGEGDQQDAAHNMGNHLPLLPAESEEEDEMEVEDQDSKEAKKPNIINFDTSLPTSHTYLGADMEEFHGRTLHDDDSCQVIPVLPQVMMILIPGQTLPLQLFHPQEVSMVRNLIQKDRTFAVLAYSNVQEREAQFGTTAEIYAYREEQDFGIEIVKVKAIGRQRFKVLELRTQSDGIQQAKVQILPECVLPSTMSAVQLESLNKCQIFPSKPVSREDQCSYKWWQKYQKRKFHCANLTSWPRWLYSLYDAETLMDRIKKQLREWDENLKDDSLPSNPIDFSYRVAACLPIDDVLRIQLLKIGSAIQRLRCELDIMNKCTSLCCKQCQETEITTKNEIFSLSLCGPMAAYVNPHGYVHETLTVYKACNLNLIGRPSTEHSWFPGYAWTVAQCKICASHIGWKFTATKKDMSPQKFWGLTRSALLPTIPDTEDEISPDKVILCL
T1 sequence (Q16531 whole entry partner): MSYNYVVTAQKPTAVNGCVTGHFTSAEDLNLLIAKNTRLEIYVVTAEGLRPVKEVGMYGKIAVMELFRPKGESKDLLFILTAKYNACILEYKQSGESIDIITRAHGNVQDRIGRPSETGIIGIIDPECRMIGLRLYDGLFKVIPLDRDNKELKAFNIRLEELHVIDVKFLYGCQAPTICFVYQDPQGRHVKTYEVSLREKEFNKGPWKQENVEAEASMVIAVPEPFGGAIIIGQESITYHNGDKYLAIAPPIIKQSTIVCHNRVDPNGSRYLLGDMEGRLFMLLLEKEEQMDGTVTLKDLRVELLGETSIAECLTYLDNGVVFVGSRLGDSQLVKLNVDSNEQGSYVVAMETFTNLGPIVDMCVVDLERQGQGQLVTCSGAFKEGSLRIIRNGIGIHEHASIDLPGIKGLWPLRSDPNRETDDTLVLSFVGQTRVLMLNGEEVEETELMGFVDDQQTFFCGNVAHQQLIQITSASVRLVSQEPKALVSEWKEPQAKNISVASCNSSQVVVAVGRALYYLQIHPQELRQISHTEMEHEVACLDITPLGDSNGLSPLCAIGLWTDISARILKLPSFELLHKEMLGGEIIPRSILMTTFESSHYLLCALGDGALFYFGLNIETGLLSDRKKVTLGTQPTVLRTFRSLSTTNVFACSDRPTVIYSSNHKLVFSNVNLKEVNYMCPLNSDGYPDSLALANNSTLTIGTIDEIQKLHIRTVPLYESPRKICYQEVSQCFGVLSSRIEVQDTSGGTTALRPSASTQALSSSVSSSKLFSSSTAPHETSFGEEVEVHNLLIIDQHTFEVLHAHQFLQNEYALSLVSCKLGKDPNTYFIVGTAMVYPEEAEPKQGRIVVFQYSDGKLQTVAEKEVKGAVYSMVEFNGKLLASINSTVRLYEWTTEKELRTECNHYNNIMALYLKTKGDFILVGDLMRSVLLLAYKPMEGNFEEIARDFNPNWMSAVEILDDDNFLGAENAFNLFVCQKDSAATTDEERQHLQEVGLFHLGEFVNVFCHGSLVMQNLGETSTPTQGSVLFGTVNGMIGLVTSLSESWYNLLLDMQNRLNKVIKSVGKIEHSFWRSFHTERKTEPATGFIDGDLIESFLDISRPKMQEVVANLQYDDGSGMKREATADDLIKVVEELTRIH

SMILES	EC50 (MDA-MB-231 cells; [1]) [nM]	EC50 (MKN45 cells; Homo sapiens, MKN-45, 120 h) [nM]	DC50 (WEE1) [nM]	293T-LentiX WEE1-ePL Degradation 4 hr YMin (%) (WEE1)	EC50 (MDA-MB-231 cells) [nM]	EC50 (MKN45 cells) [nM]	MDA-MB 231 Cell Prolif. 120 hr YMin (%) (MDA-MB-231 cells)	MKN45 Cell Prolif. 120 hr YMin (%) (MKN45 cells)
COC[C@@H]1CN(Cc2cc(F)c3nc(C4CCC(C(C)(C)O)CC4)ncc3c2)C[C@H]1Oc1ccc2c(c1)CN([C@H]1CCC(=O)NC1=O)C2=O (relative stereo) [Example 111, rel-(S)-3-(5-(((3S,4S)-1-((8-fluoro-2-(4-(2-hydroxypropan-2-yl)cyclohexyl)quinazolin-6-yl)methyl)-4-(methoxymethyl)pyrrolidin-3-yl)oxy)-1-oxoisoindolin-2-yl)piperidine-2,6-dione]	26	1	1	27.1	–	–	16.4	7.8
COC[C@@H]1CN(Cc2cc(F)c3nc(N4CCC(O)CC4)ncc3c2)C[C@H]1Oc1ccc2c(c1)CN([C@H]1CCC(=O)NC1=O)C2=O [Example 63, (3S)-3-(5-{[(3S,4S)-1-{[8-fluoro-2-(4-hydroxypiperidin-1-yl)quinazolin-6-yl]methyl}-4-(methoxymethyl)pyrrolidin-3-yl]oxy}-1-oxo-2,3-dihydro-1H-isoindol-2-yl)piperidine-2,6-dione]	42	2	3	29.2	–	–	22.6	9.2
COC[C@@H]1CN(Cc2cc(F)c3nc(C4CCCO4)ccc3c2)C[C@H]1Oc1ccc2c(c1)CN(C1CCC(=O)NC1=O)C2=O (relative stereo) [Example 65, rel-(3S)-3-(5-(((3S,4S)-1-((8-fluoro-2-(tetrahydrofuran-2-yl)quinolin-6-yl)methyl)-4-(methoxymethyl)pyrrolidin-3-yl)oxy)-1-oxoisoindolin-2-yl)piperidine-2,6-dione]	–	2	1	27.3	–	–	94.2	8.1
COC[C@@H]1CN(Cc2cc(F)c3nc(C4CCCCO4)ccc3c2)C[C@H]1Oc1ccc2c(c1)CN([C@H]1CCC(=O)NC1=O)C2=O (relative stereo) [Example 69, rel-(3S)-3-(5-{[(3S,4S)-1-{[8-fluoro-2-(oxan-2-yl)quinolin-6-yl]methyl}-4-(methoxymethyl)pyrrolidin-3-yl]oxy}-1-oxo-2,3-dihydro-1H-isoindol-2-yl)piperidine-2,6-dione]	9	1	–	27.7	–	–	20.5	8.6
CN1CC2(CC(c3ccc4cc(CN5CC[C@H](Oc6ccc7c(c6)CN([C@H]6CCC(=O)NC6=O)C7=O)C5)ccc4n3)CO2)C1 (single isomer, unassigned) [Example 2, (S)-3-(5-(((S)-1-((2-((S*)-2-methyl-5-oxa-2-azaspiro[3.4]octan-7-yl)quinolin-6-yl)methyl)pyrrolidin-3-yl)oxy)-1-oxoisoindolin-2-yl)piperidine-2,6-dione]	–	–	339	33.4	234	53	73.8	28.1
COC[C@@H]1CN(Cc2cc(F)c3nc(C45CCC(O)(CC4)CC5)ccc3c2)C[C@H]1Oc1ccc2c(c1)CN([C@H]1CCC(=O)NC1=O)C2=O [Example 55, (3S)-3-(5-{[(3S,4S)-1-[(8-fluoro-2-{4-hydroxybicyclo[2.2.2]octan-1-yl}quinolin-6-yl)methyl]-4-(methoxymethyl)pyrrolidin-3-yl]oxy}-1-oxo-2,3-dihydro-1H-isoindol-2-yl)piperidine-2,6-dione]	16	–	–	27.9	–	–	22.6	10.9
COC[C@@H]1CN(Cc2cc(F)c3nc(COC4CCOCC4)ncc3c2)C[C@H]1Oc1ccc2c(c1)CN([C@H]1CCC(=O)NC1=O)C2=O [Example 42, (3S)-3-(5-{[(3S,4S)-1-({8-fluoro-2-[(oxan-4-yloxy)methyl]quinazolin-6-yl}methyl)-4-(methoxymethyl)pyrrolidin-3-yl]oxy}-1-oxo-2,3-dihydro-1H-isoindol-2-yl)piperidine-2,6-dione]	122	9	8	31.5	–	–	33.0	12.2
O=C1CC[C@H](N2Cc3cc(O[C@H]4CCN(Cc5cc(F)c6nc(N7C[C@@H]8CCO[C@@H]8C7)ncc6c5)C4)ccc3C2=O)C(=O)N1 (single isomer, unassigned) [Example 19, (S)-3-(5-(((S)-1-((8-fluoro-2-((3aS*,6aS*)-hexahydro-5H-furo[2,3-c]pyrrol-5-yl)quinazolin-6-yl)methyl)pyrrolidin-3-yl)oxy)-1-oxoisoindolin-2-yl)piperidine-2,6-dione]	104	12	6	31.4	–	–	58.4	10.1
O=C1CC[C@H](N2Cc3cc(O[C@H]4CCN(Cc5cc(F)c6nc(N7C[C@H]8CCO[C@H]8C7)ccc6c5)C4)ccc3C2=O)C(=O)N1 (single isomer, unassigned) [Example 7, (S)-3-(5-(((S)-1-((8-fluoro-2-((3aR*,6aR*)-hexahydro-5H-furo[2,3-c]pyrrol-5-yl)quinolin-6-yl)methyl)pyrrolidin-3-yl)oxy)-1-oxoisoindolin-2-yl)piperidine-2,6-dione]	74	5	1	31.9	–	–	64.0	13.7
COC[C@@H]1CN(Cc2cc(F)c3c(ccn3C(=O)C3CCOCC3)c2)C[C@H]1Oc1ccc2c(c1)CN([C@H]1CCC(=O)NC1=O)C2=O [Example 24, (3S)-3-(5-{[(3S,4S)-1-{[7-fluoro-1-(oxane-4-carbonyl)-1H-indol-5-yl]methyl}-4-(methoxymethyl)pyrrolidin-3-yl]oxy}-1-oxo-2,3-dihydro-1H-isoindol-2-yl)piperidine-2,6-dione]	68	50	5	37.7	–	–	87.7	49.1

Continued, in another order:

EC50 (MDA-MB-231 cells; [1]) [nM]	EC50 (MKN45 cells; Homo sapiens, MKN-45, 120 h) [nM]	DC50 (WEE1) [nM]	293T-LentiX WEE1-ePL Degradation 4 hr YMin (%) (WEE1)	EC50 (MDA-MB-231 cells) [nM]	EC50 (MKN45 cells) [nM]	SMILES	MDA-MB 231 Cell Prolif. 120 hr YMin (%) (MDA-MB-231 cells)	MKN45 Cell Prolif. 120 hr YMin (%) (MKN45 cells)
≥ 10300	348	3	48.1	–	–	COC(C)(C)[C@@H]1CN(Cc2ccc3nc(C4CCOCC4)ccc3c2)C[C@H]1Oc1ccc2c(c1)CN([C@H]1CCC(=O)NC1=O)C2=O (racemic) [Example 138, (3S)-3-(5-((4-(2-methoxypropan-2-yl)-1-((2-(tetrahydro-2H-pyran-4-yl)quinolin-6-yl)methyl)pyrrolidin-3-yl)oxy)-1-oxoisoindolin-2-yl)piperidine-2,6-dione]	94.6	80.2
3490	–	–	82.5	–	–	O=C1CC[C@H](N2Cc3cc(O[C@@H]4CN(Cc5cc(F)c6nc(C7CCOCC7)ccc6c5)C[C@H]4C4CCCC4)ccc3C2=O)C(=O)N1 (relative stereo) [Example 123, (S)-3-(5-(((3S*,4R*)-4-Cyclopentyl-1-((8-fluoro-2-(tetrahydro-2H-pyran-4-yl)-quinolin-6-yl)methyl)pyrrolidin-3-yl)oxy)-1-oxoisoindolin-2-yl)piperidine-2,6-dione]	81.9	80.9
23	2	1	28.5	–	–	COC[C@@H]1CN(Cc2cc(F)c3nc(N4CCC(O)CC4)ccc3c2)C[C@H]1Oc1ccc2c(c1)CN([C@H]1CCC(=O)NC1=O)C2=O [Example 64, (S)-3-(5-(((3S,4S)-1-((8-fluoro-2-(4-hydroxypiperidin-1-yl)quinolin-6-yl)methyl)-4-(methoxymethyl)pyrrolidin-3-yl)oxy)-1-oxoisoindolin-2-yl)piperidine-2,6-dione]	17.1	8.8
18	2	4	26.2	–	–	COC[C@@H]1CN(Cc2cc(F)c3nc(C4CN(CC(F)(F)F)C4)ncc3c2)C[C@H]1Oc1ccc2c(c1)CN([C@H]1CCC(=O)NC1=O)C2=O [Example 46, (3S)-3-(5-{[(3S,4S)-1-({8-fluoro-2-[1-(2,2,2-trifluoroethyl)azetidin-3-yl]quinazolin-6-yl}methyl)-4-(methoxymethyl)pyrrolidin-3-yl]oxy}-1-oxo-2,3-dihydro-1H-isoindol-2-yl)piperidine-2,6-dione]	17.7	8.7
